PMC3636874, “An Antedrug of the CXCL12 Neutraligand Blocks Experimental Allergic Asthma without Systemic Effect in Mice” (The Journal of Biological Chemistry, 2013)
Where two headings read alike, the source gives them in different places. Each block holds one compound with its values, some of them ahead of it.

How the values were obtained:
[1] = test system: CXCL12 action on forskolin-evoked cAMP responses via CXCR4; assay: cAMP determination with BRET sensor CAMYEL in HEK EGFP-hCXCR4 cells; assay type: cell-based; settings: Homo sapiens; HEK293 EGFP-hCXCR4, 1 μM forskolin, 3 nM CXCL12; read-out: IC50, inhibition of CXCL12 effect on forskolin-evoked cAMP formation
Protocol: CXCR4 receptor coupling to adenylyl cyclase was assessed by measuring the dose-dependent inhibitory effects of chemokine with or without chalcone on forskolin-stimulated cAMP accumulation. To facilitate studies of cAMP regulation, we used a developed bioluminescence resonance energy transfer (BRET) sensor for cAMP, CAMYEL (cAMP sensor using YFP-Epac-RLuc), which can quantitatively and rapidly monitor intracellular concentrations of cAMP in cells ([47]). HEK EGFP-hCXCR4 cells were cultured to ∼80% confluence in 75-cm^2 flasks in MEM with Earle's salt supplemented with 10% fetal calf serum, 2 mM glutamine, and 1% antibiotics (penicillin/streptomycin). Cells were plated on 10-cm plates and transfected with 10 μg of CAMYEL plasmid using the calcium phosphate precipitation method. Two days later, cells were plated in 96-well solid white tissue culture plates (Greiner) at a density of 60,000 cells/well the day before cAMP assay. […] The BRET assay was carried out with a Victor Light plate reader (PerkinElmer Life Sciences). Emission signals from Renilla luciferase and YFP were measured sequentially using a BRET1 filter set (475-30/535-30). […] After 5 min, 10 μl of a Hanks' balanced salt solution of coelenterazine-H (2 μM) were added, and plates were incubated for 10 min at 37 °C before reading.

[2] = General toxicity in vivo: body and spleen weight; parameters: species or system mouse; settings: for Weight, Body (percentage of control animals) / Weight, Spleen: three days
Protocol: General toxicity was evaluated in vivo in mice that received CN-chalcone 4 intraperitoneally at a dose of 350 μmol/kg (100 mg/kg) per day during three consecutive days. As reported in Table 2, there was no body or spleen weight loss nor any modification of cytochrome c oxidase activity in lung and heart, indicating no toxicity of CN-chalcone 4 administered at the highest active dose.

HepG2 cells = assay: Cytotoxicity, Alamar Blue (resazurin) reduction assay; assay type: cell-based, human; settings: HepG2: 10 μM, 24 h
Protocol: The capacity of the cells to carry out reduction reactions after drug treatment was estimated with the fluorescent Alamar Blue reagent (AbD Serotec, Oxford, UK). Proliferating cells cause the change from the oxidized blue and non-fluorescent Alamar Blue form (resazurin) to a reduced, pink, highly fluorescent form (resorufin) that can be detected using fluorescence monitoring (excitation 560 nm; emission 590 nm). HepG2 or HEK 293 cells were seeded at a density of 30,000 cells/well on a 96-well plate and allowed to settle overnight before treatment. The dye was added to the cells together with the test substances (5-fold concentrated stock solution prepared in culture medium or in PBS with 10% HP-βCD), and the fluorescence was measured after 24-h incubation, using a Flex Station (Molecular Devices).

Stability in mouse serum = assay type: in vitro ADME; settings: 37 °C; for half-life at 20 μM: mouse, mouse serum
Protocol: Solubility and stability studies were performed on a Gilson HPLC system with a photodiode array detector, an autosampler, and a Valco injector. Data acquisition and processing were performed with Trilution LC version 2.0 software. Measurements were carried out at 21 ± 1 °C. A 2.6-μm Kinetex column (50 × 4.6 mm) was used for stability studies in biological media, and a 5-μm Luna C18(2) column (50 × 4.6 mm) was used for solubility and chemical stability analysis. Both columns were purchased from Phenomenex. The injection volume was 20 μl, the mobile phase flow rate was 2 ml/min, and the following program was applied for the elution: 0–0.2 min, 0% B; 0.2–2.7 min, 0–100% B; 2.7–3.2 min, 100% B; 3.2–3.4 min, 100–0% B; 3.4–6.1 min, 0% B. Solvent B was HPLC grade acetonitrile (Sigma-Aldrich CHROMASOLV). The aqueous solvent contained 0.1% trifluoroacetic acid, and the detection wavelength was 365 nm.
Stability of chalcones was determined in mouse serum with or without 10% HP-βCD at 37 °C up to 16 h. For each compound, the 10 mM DMSO stock solution was diluted in serum to a final concentration of 20 μM with 1% DMSO. For the measurements with HP-β-cyclodextrin, a solution of PBS (pH 7.4) containing 10% (v/w) HP-βCD was saturated with compound powder. The saturated solution was then diluted in murine serum to a final compound concentration of 20 μM. The mixture was divided into five aliquots. The incubation of each aliquot was stopped at t0 and 30 min, 1, 2, and 16 h for chalcone 4 and at t0 and 15, 30, 45, and 60 min for CN-chalcone 4 by adding one volume of ice cold acetonitrile. Samples were stirred for 3 min, sonicated for 3 min, and then centrifuged at 4 °C before HPLC injection. The percentage of remaining test compound relative to t0 was measured by monitoring the peak area on the chromatogram.

Cytochrome c oxidase = Cytochrome c oxidase activity in lung and heart homogenates of treated mice; assay type: in vivo, mouse; settings: intraperitoneal 350 μmol/kg per day, three days
Protocol: Lung and heart were homogenized separately with an UltraTurax® (IMLAB, Lille, France) in PBS, pH 7.4 (one organ in 1 ml of buffer). Lung homogenate was diluted at 1:2 and heart homogenate at 1:5 in PBS. 100 μl of each diluted homogenate were placed in a microplate, and 100 μl of assay reagent (10 mM tetramethyl-p-phenylenediamine, 2 mM sodium ascorbate, 20 mM KH2PO4) were added. The microplate was placed immediately in a microplate spectrophotometer reader, and optical density kinetic (λ = 610 nm) was measured every 20 s for 30 min. Results are expressed as Vmax/100 μg of protein (OD/min/100 μg of protein).

[3] = parameters: method as in PMID 24900366; settings: cited from earlier work
[4] = parameters: method as in PMID 24900366; settings: cited from earlier work; remark: listed apart in the source
[5] = OVA-challenged mice, intraperitoneal 350 μmol/kg per day
[6] = 20 μM, with 10% HP-βCD, read-out: Stability half-life (t1/2), murine serum, 10% β-cyclodextrine (converted)
[7] = 20 μM, read-out: Stability half-life (t1/2), murine serum (converted)

Compound: COc1cc(/C=C(\C#N)C(=O)c2ccc(Cl)cc2)ccc1O [CN-chalcone 4, (E)-2-(4-chlorobenzoyl)-3-(4-hydroxy-3-methoxyphenyl)acrylonitrile]
IC50 [1]: 6.9 ± 0.4 µM | Weight, Body (percentage of control animals) [2, 5]: 99.6 ± 6% | Weight, Spleen [2, 5]: 123 ± 4 mg | Weight, Body (percentage of control animals) ([2]; mice without OVA, intraperitoneal 350 μmol/kg (100 mg/kg) per day, carboxymethylcellulose): 99.6 ± 6% | Weight, Spleen ([2]; mice without OVA, intraperitoneal 350 μmol/kg per day): 125 ± 11 mg | general toxicity in vivo (body and spleen weight, cytochrome c oxidase activity in lung and heart) ([2]; mice, intraperitoneal 350 μmol/kg (100 mg/kg) per day during three consecutive days): no toxicity | toxic effect in vivo or in HepG2 cells in vitro (HepG2 cells): neither the reactants nor carbonitrile-chalcone 4 display any toxic effect | half-life at 20 μM (Stability in mouse serum; [6]): 1.3 h | half-life at 20 μM (Stability in mouse serum; [7]): 0.3 h | half-life at 20 μM (Stability in mouse serum; read-out: t½ in murine serum): 0.333 h | Cytochrome c oxidase (Vmax), Heart (×10^3) (Cytochrome c oxidase; OVA-challenged mice): 29.9 ± 3.5 OD/min/100 μg of protein (×10^ | Cytochrome c oxidase (Vmax), Lung (×10^2) (Cytochrome c oxidase; OVA-challenged mice): 12.7 ± 1.6 OD/min/100 μg of protein (×10^ | Cytochrome c oxidase (Vmax), Heart (×10^3) (Cytochrome c oxidase; mice without OVA): 28.5 ± 3.2 OD/min/100 μg of protein (×10^ | Cytochrome c oxidase (Vmax), Lung (×10^2) (Cytochrome c oxidase; mice without OVA): 13.8 ± 2.8 OD/min/100 μg of protein (×10^

IC50 [1]: 4.1 ± 0.3 µM | percentage of starting molecule recovered, murine serum (Stability in mouse serum; at 16 h): 96% | percentage of starting molecule recovered, murine serum, 10% β-cyclodextrine (Stability in mouse serum; at 16 h): 91% | half-life at 20 μM (Stability in mouse serum; [6]): > 16 h | half-life at 20 μM (Stability in mouse serum; [7]): > 16 h
Compound: COc1cc(/C=C/C(=O)c2ccc(Cl)cc2)ccc1O [chalcone 4]
Stability half-life (t1/2), lung homogenate ([3]; mouse lung homogenate): > 6 h | percentage of starting molecule recovered, lung homogenate ([3]; time not given): 60% | Stability half-life (t1/2), PBS ([4]; PBS pH 7.4): > 10 h | Stability half-life (t1/2), PBS, 10% β-cyclodextrine ([4]; PBS with 10% HP-βCD): > 10 h | percentage of starting molecule recovered, PBS ([4]; at 10 h): 98% | percentage of starting molecule recovered, PBS, 10% β-cyclodextrine ([4]; at 10 h): 95%
